{
  "source": "patent US9744177B2",
  "about": "“Treatment of male androgen deficiency symptoms or diseases with sex steroid precursor combined with SERM” (ENDORECHERCHE, INC., priority 2014, dated 2017)",
  "key": {"[1]": {"conditions": "female, Long-Evans, rat, in vivo, po, 20 mg/kg"}, "serum testosterone": {"system": "serum testosterone", "assay": "Serum testosterone in male cynomolgus monkeys dosed orally", "format": "in vivo", "conditions": "oral 2.5, 10 or 40 mg acolbifene/day, 13 weeks", "method": "FIG. 13: Male cynomolgus monkeys were dosed orally with 2.5, 10 or 40 mg acolbifene/day for 13 weeks. Control monkeys received vehicle alone (0.4% methylcellulose). […] Results are expressed as the mean±SEM of 4 monkeys per group. P values (versus control) were calculated using a two-sided t test assuming equality of variances. FIG. 14: […] Control monkeys received vehicle alone (0.4% methylcellulose). […] P values (versus control) were calculated using a two-sided t test assuming equality of variances."}, "[2]": {"system": "ovariectomized female rats", "assay": "3-month treatment of ovariectomized female rats: lumbar spine BMD, total fat, cholesterol, ALP (Example 3, experiment 1)", "format": "in vivo, Sprague-Dawley rats", "conditions": "OVX rats, 3 months, serum", "method": "Ten to twelve week-old female Sprague-Dawley rats (Crl:CD(SD)Br) (Charles River Laboratory, St-Constant, Canada) weighing approximately 220-270 g at start of treatment were used. The animals were acclimatized to the environmental conditions (temperature: 22±3° C.; humidity: 50±20%; 12-h light-12-h dark cycles, lights on at 07:15 h) for at least 1 week before starting the experiments. The animals were housed individually and were allowed free access to tap water and a pelleted certified rodent feed (Lab Diet 5002, Ralston Purina, St-Louis, Mo.). Experiments were conducted in an animal facility approved by the Canadian Council on Animal Care (CCAC) and the Association for Assessment and Accreditation of Laboratory Animal Care (AAALAC) in accordance with the CCAC Guide for Care and Use of Experimental Animals.\nOn Day 1 of the study, the animals of the appropriate groups were bilaterally ovariectomized (OVX) under isoflurane anesthesia. The DHEA was applied topically on the dorsal skin as a solution in 50% ethanol-50% propylene glycol while the other tested compounds were administered as suspension in 0.4% methylcellulose by oral gavage. Treatments were initiated on Day 2 of the study and were performed once daily during 3 months.\n(§1) After 3 months (experiment 1) or 26 weeks (experiment 2) of treatment, individual rats under Isoflurane anesthesia had their whole body skeleton and lumbar spine scanned using dual energy x-ray absorptiometry (DEXA; QDR 4500A, Hologic, Waltham, Mass.) and a Regional High Resolution Scan software. The bone mineral density (BMD) of the lumbar spine (vertebrae L2 to L4) and the total body composition (fat percentage) were determined.\nAfter 3 months (experiment 1) or 26 weeks (experiment 2) of treatment, blood samples were collected at the jugular vein from overnight fasted animals (under Isoflurane anesthesia). Samples were processed for serum preparation and frozen at −80° C. until assay. Serum cholesterol levels and alkaline phospatase activity (ALP) were determined using the Boehringer Mannheim Diagnostic Hitachi 911 Analyzer (Boehringer Mannheim Diagnostic Laboratory Systems).\nData are expressed as means±SEM. Statistical significance was determined according to the multiple-range test of Duncan-Kramer (Kramer 1956)."}, "[3]": {"system": "human ZR-75-1 breast tumors", "assay": "ZR-75-1 tumor growth in ovariectomized nude mice in absence of estrone (agonistic effects)", "conditions": "no estrone, 200 μg daily, 161 days, hydrochloride"}, "uterine epithelial cells": {"system": "uterine epithelial cells", "assay": "Thickness of uterine (endometrial) epithelial cells in ovariectomized nude mice", "conditions": "no estrone, 200 μg daily"}, "serum E2 levels": {"system": "serum E2 levels", "assay": "Serum E2 in a premenopausal person with advanced breast cancer on acolbifene", "format": "in vivo, human", "conditions": "20 mg daily oral, 6 months, from 222 before"}, "[4]": {"system": "ovariectomized female rats", "assay": "26-week treatment of ovariectomized female rats: lumbar spine BMD, total fat, cholesterol, ALP (Example 3, experiment 2)", "format": "in vivo, Sprague-Dawley rats", "conditions": "OVX rats, 26 weeks, serum", "method": "Ten to twelve week-old female Sprague-Dawley rats (Crl:CD(SD)Br) (Charles River Laboratory, St-Constant, Canada) weighing approximately 220-270 g at start of treatment were used. The animals were acclimatized to the environmental conditions (temperature: 22±3° C.; humidity: 50±20%; 12-h light-12-h dark cycles, lights on at 07:15 h) for at least 1 week before starting the experiments. The animals were housed individually and were allowed free access to tap water and a pelleted certified rodent feed (Lab Diet 5002, Ralston Purina, St-Louis, Mo.). […]\nas §1\nAfter 3 months (experiment 1) or 26 weeks (experiment 2) of treatment, blood samples were collected at the jugular vein from overnight fasted animals (under Isoflurane anesthesia). […] Serum cholesterol levels and alkaline phospatase activity (ALP) were determined using the Boehringer Mannheim Diagnostic Hitachi 911 Analyzer (Boehringer Mannheim Diagnostic Laboratory Systems).\nData are expressed as means±SEM. […]"}, "ovariectomized mice": {"system": "ovariectomized mice", "assay": "Estrogenic activity: uterine and vaginal weight in ovariectomized mice, compounds alone", "format": "in vivo, BALB/c mice", "conditions": "OVX mice, no estrone; 10 μg daily oral", "method": "Female BALB/c mice (BALB/cAnNCrlBR) weighing 18-20 g were obtained from Charles-River, Inc. (St-Constant, Quebec, Canada) and housed 5 per cage in a temperature (23±1° C.)- and light (12 h light/day, lights on at 7:15)-controlled environment. The mice were fed rodent chow and tap water ad libitum. The animals were ovariectomized (OVX) under Isoflurane anesthesia via bilateral flank incisions and randomly assigned to groups of 10 animals. Ten mice were kept intact as controls.\nIn the second experiment (Table 4), TSE 424 was administered orally by gavage once daily at doses of 1, 3, 10 or 30 μg/animal for 9 days, starting 2 days after ovariectomy. In both experiments, to evaluate the antiestrogenic activity, treatment with estrone (E1, 0.06 μg, s.c. injection, twice daily) was started 5 days post-ovariectomy and was administered for a 6 day-period. Compounds were dissolved in ethanol (4% final concentration) and administered in 0.4% methylcellulose. Mice in the intact and OVX control groups received the vehicle alone (4% ETOH-0.4% methylcellulose) during the 9-day period. The animals were killed by exsanguination at the abdominal aorta on the 11th morning following ovariectomy. The uteri and vagina were rapidly dissected, weighed, and kept in 10% buffered formalin for further histologic examination."}, "[5]": {"system": "human breast cancer MCF-7 cells", "assay": "Proliferation of MCF-7 cells (DNA content)", "format": "cell-based", "conditions": "Experiment 2", "method": "The MCF-7 human breast adenocarcinoma cell line was derived from the pleural effusion of a patient. MCF-7 cells were used between passages 148 and 165 and subcultured weekly.\nCells in their late logarithmic growth phase were harvested with 0.1% pancreatin (Sigma) and resuspended in the appropriate medium containing 50 ng bovine insulin/mL and 5% (v/v) FBS treated twice with dextran-coated charcoal to remove endogenous steroids. Cells were plated in 24-well Falcon plastic culture plates (2 Cm^2/well) at the indicated density and allowed to adhere to the surface of the plates for 72 h. Thereafter, medium was replaced with fresh medium containing the indicated concentrations of compounds diluted from 1000× stock solutions in 99% redistilled ethanol in the presence or absence of E2. Control cells received only the ethanolic vehicle (0.1% EtOH, v/v). Cells were incubated for the specified time intervals with medium changes at 2- or 3-day intervals. Cell number was determined by measurement of DNA content.\nDose-response curves as well IC50 values were calculated using a weighted iterative nonlinear least-squares regression. All results are expressed as means±SEM."}, "[6]": {"conditions": "patients treated with testosterone; cited from earlier work"}, "[7]": {"conditions": "men with serum testosterone <3.0 ng/mL after coronography; control group 15.4%; cited from earlier work"}},
  "note": "Entries after “also recorded” stand apart in the source; their conditions may differ.",
  "data": [
    {"smiles": "CC1=C(c2ccc(OC(=O)C(C)(C)C)cc2)[C@H](c2ccc(OCCN3CCCCC3)cc2)Oc2cc(OC(=O)C(C)(C)C)ccc21", "note": "[14C-EM-800]", "values": [
      {"measurement": "total drug-derived radioactivity in the brain, detection", "setting": "[1]", "value": "not detected after 12 hr post dose"}
    ]},
    {"smiles": "CC1=C(c2ccc(O)cc2)[C@H](c2ccc(OCCN3CCCCC3)cc2)Oc2cc(O)ccc21.Cl", "note": "[EM-652.HCl, (S)-(+)-7-hydroxy-3-(4′-hydroxyphenyl)-4-methyl-2-(4″-(2′″-piperidinoethoxy)phenyl)-2H-1-benzopyran hydrochloride]", "values": [
      {"measurement": "serum testosterone levels (FIGS. 13 and 14)", "setting": "serum testosterone", "value": "increased serum testosterone levels"},
      {"measurement": "ALP", "setting": "[2]", "value": "91 ± 6", "unit": "IU/L"},
      {"measurement": "CHOLESTEROL", "setting": "[2]", "value": "0.87 ± 0.04", "unit": "mmol/L"},
      {"measurement": "effect of compound alone on ZR-75-1 tumor size compared to OVX control", "setting": "[3]", "value": "did not exert any stimulatory effect; also recorded: did not significantly change"},
      {"measurement": "effect of compound alone on ZR-75-1 tumor size compared to OVX control", "setting": "[3]; listed as Acolbifene", "value": "no effect on tumor growth"},
      {"measurement": "height of uterine epithelial cells, % of the OVX control group value", "setting": "uterine epithelial cells", "value": 114, "unit": "%"},
      {"measurement": "serum E2 levels", "setting": "serum E2 levels", "value": 2030, "unit": "pg/mL"},
      {"measurement": "CHOLESTEROL", "setting": "[4]", "value": "0.98 ± 0.06", "unit": "mmol/L"}
    ]},
    {"smiles": "Oc1ccc2c(c1)CC[C@H](c1ccccc1)[C@@H]2c1ccc(OCCN2CCCC2)cc1", "note": "[lasofoxifene (free base)]", "values": [
      {"measurement": "stimulation of uterine weight", "setting": "ovariectomized mice", "value": 93, "unit": "%"},
      {"measurement": "stimulation of vaginal weight", "setting": "ovariectomized mice", "value": 73, "unit": "%"},
      {"measurement": "Stimulation of DNA by tested compounds", "setting": "[5]", "value": "N.S."}
    ]},
    {"smiles": "C[C@]12CC[C@H]3[C@@H](CCC4=CC(=O)CC[C@@]43C)[C@@H]1CC[C@@H]2O", "note": "[testosterone]", "values": [
      {"measurement": "decrease in mortality risk", "setting": "[6]", "value": 39, "unit": "%"},
      {"measurement": "lower incidence of heart disease", "setting": "[6]", "value": 20, "unit": "%"},
      {"measurement": "rate of deaths at 3 years", "setting": "[7]", "value": 18.5, "unit": "%"}
    ]}
  ]
}
